Data taken from ChEMBL document CHEMBL1201861, “Genomics of Drug Sensitity in Cancer screening data, Wellcome Trust Sanger Institute”.
pIC50: −log10 of the molar value.

Columns and labels:
[1] = tested on: SW1710; assay: cells; assay type: functional, cell-based, Homo sapiens; details: Homo sapiens, SW1710;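 further: growth inhibition of SW1710 cells, determined with a cell viability assay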
Description: SANGER: Inhibition of human SW1710 cell growth in a cell viability assay.

[2] = tested on: MRK-nu-1; assay: cells; assay type: functional, cell-based, Homo sapiens; details: Homo sapiens, MRK-nu-1;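 further: cell viability assay measuring growth suppression of human MRK-nu-1 cells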
Description: SANGER: Inhibition of human MRK-nu-1 cell growth in a cell viability assay.

[3] = tested on: Ca-Ski; assay: cells; assay type: functional, cell-based, Homo sapiens; details: Homo sapiens, Ca-Ski;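 further: cell viability assay measuring inhibition of Ca-Ski cell growth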
Description: SANGER: Inhibition of human Ca-Ski cell growth in a cell viability assay.

[4] = tested on: DMS-153; assay: cells; assay type: functional, cell-based, Homo sapiens; details: Homo sapiens, DMS-153
Description: SANGER: Inhibition of human DMS-153 cell growth in a cell viability assay.

[5] = tested on: CAL-62; assay: cells; assay type: functional, cell-based, Homo sapiens; details: Homo sapiens, CAL-62;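 further: growth inhibition of CAL-62 cells, read out with a cell viability assay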
Description: SANGER: Inhibition of human CAL-62 cell growth in a cell viability assay.

[6] = tested on: LU-165; assay: cells; assay type: functional, cell-based, Homo sapiens; details: Homo sapiens, LU-165
Description: SANGER: Inhibition of human LU-165 cell growth in a cell viability assay.

[7] = tested on: SW1417; assay: cells; assay type: functional, cell-based, Homo sapiens; details: Homo sapiens, SW1417;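 further: growth inhibition of human SW1417 cells, read out with a cell viability assay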
Description: SANGER: Inhibition of human SW1417 cell growth in a cell viability assay.

[8] = tested on: NCI-H2009; assay: cells; assay type: functional, cell-based, Homo sapiens; details: Homo sapiens, NCI-H2009;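 further: cell viability assay measuring inhibition of NCI-H2009 cell growth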
Description: SANGER: Inhibition of human NCI-H2009 cell growth in a cell viability assay.

[9] = tested on: MDA-MB-175-VII; assay: cells; assay type: functional, cell-based, Homo sapiens; details: Homo sapiens, MDA-MB-175-VII
[10] = tested on: HT55; assay: cells; assay type: functional, cell-based, Homo sapiens; details: Homo sapiens, HT55;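 further: cell viability readout measuring growth inhibition of human HT55 cells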
Description: SANGER: Inhibition of human HT55 cell growth in a cell viability assay.

[11] = tested on: LU-99A; assay: cells; assay type: functional, cell-based, Homo sapiens; details: Homo sapiens, LU-99A;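 further: growth inhibition of LU-99A cells, read out with a cell viability assay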
Description: SANGER: Inhibition of human LU-99A cell growth in a cell viability assay.

[12] = tested on: THP-1; assay: cells; assay type: functional, cell-based, Homo sapiens; details: Homo sapiens, THP-1;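 further: growth inhibition of THP-1 cells, read out via a cell viability assay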
Description: SANGER: Inhibition of human THP-1 cell growth in a cell viability assay.

[13] = tested on: NCI-H524; assay: cells; assay type: functional, cell-based, Homo sapiens; details: Homo sapiens, NCI-H524;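 further: growth inhibition of human NCI-H524 cells, read out through a cell viability assay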
Description: SANGER: Inhibition of human NCI-H524 cell growth in a cell viability assay.

[14] = tested on: SW48; assay: cells; assay type: functional, cell-based, Homo sapiens; details: Homo sapiens, SW48;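 further: growth inhibition of SW48 cells, read out with a cell viability assay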
Description: SANGER: Inhibition of human SW48 cell growth in a cell viability assay.

[15] = tested on: SUP-T1; assay: cells; assay type: functional, cell-based, Homo sapiens; details: Homo sapiens, SUP-T1;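 further: growth inhibition of human SUP-T1 cells, read out as cell viability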
Description: SANGER: Inhibition of human SUP-T1 cell growth in a cell viability assay.

[16] = tested on: A-375; assay: cells; assay type: functional, cell-based, Homo sapiens; details: Homo sapiens, A-375;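 further: growth inhibition of A375 cells, read out with a cell viability assay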
Description: SANGER: Inhibition of human A375 cell growth in a cell viability assay.

[17] = tested on: LC-1F; assay: cells; assay type: functional, cell-based, Homo sapiens; details: Homo sapiens, LC-1F;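 further: growth inhibition of human LC-1F cells, read out with a cell viability assay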
Description: SANGER: Inhibition of human LC-1F cell growth in a cell viability assay.

[18] = tested on: MDA-MB-453; assay: cells; assay type: functional, cell-based, Homo sapiens; details: Homo sapiens, MDA-MB-453
Description: SANGER: Inhibition of human MDA-MB-453 cell growth in a cell viability assay.

[19] = tested on: MC-CAR; assay: cells; assay type: functional, cell-based, Homo sapiens; details: Homo sapiens, MC-CAR;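 further: growth inhibition of the human MC-CAR cell line, read out by a cell viability assay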
Description: SANGER: Inhibition of human MC-CAR cell growth in a cell viability assay.

[20] = tested on: DU-145; assay: cells; assay type: functional, cell-based, Homo sapiens; details: Homo sapiens, DU-145
Description: SANGER: Inhibition of human DU-145 cell growth in a cell viability assay.

[21] = tested on: SK-MEL-24; assay: cells; assay type: functional, cell-based, Homo sapiens; details: Homo sapiens, SK-MEL-24;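 further: growth inhibition read out by a cell viability assay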
Description: SANGER: Inhibition of human SK-MEL-24 cell growth in a cell viability assay.

[22] = tested on: H4; assay: cells; assay type: functional, cell-based, Homo sapiens; details: Homo sapiens, H4
Description: SANGER: Inhibition of human H4 cell growth in a cell viability assay.

[23] = tested on: HT1197; assay: cells; assay type: functional, cell-based, Homo sapiens, HT-1197; details: Homo sapiens, HT1197
Description: SANGER: Inhibition of human HT-1197 cell growth in a cell viability assay.

[24] = tested on: SCLC-21H; assay: cells; assay type: functional, cell-based, Homo sapiens; details: Homo sapiens, SCLC-21H;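 further: growth inhibition of cultured human SCLC-21H cells, read out with a cell viability assay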
Description: SANGER: Inhibition of human SCLC-21H cell growth in a cell viability assay.

[25] = tested on: FTC-133; assay: cells; assay type: functional, cell-based, Homo sapiens; details: Homo sapiens, FTC-133
[26] = tested on: BL-70; assay: SANGER: Inhibition of human BL-70 cell growth in a cell viability assay.; assay type: functional, cell-based; details: Homo sapiens, BL-70
[27] = tested on: NCI-H810; assay: cells; assay type: functional, cell-based, Homo sapiens; details: Homo sapiens, NCI-H810;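 further: IC50 reflects inhibition of cancer cell line growth, read out with a cell viability assay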
Description: SANGER: Inhibition of human NCI-H810 cell growth in a cell viability assay.

[28] = tested on: WM-115; assay: cells; assay type: functional, cell-based, Homo sapiens; details: Homo sapiens, WM-115
Description: SANGER: Inhibition of human WM-115 cell growth in a cell viability assay.

[29] = tested on: Capan-2; assay: cells; assay type: functional, cell-based, Homo sapiens; details: Homo sapiens, Capan-2;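 further: Capan-2 cell growth inhibition, read out with a viability assay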
Description: SANGER: Inhibition of human Capan-2 cell growth in a cell viability assay.

[30] = tested on: HTC-C3; assay: cells; assay type: functional, cell-based, Homo sapiens; details: Homo sapiens, HTC-C3;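 further: inhibition of cell growth, read out with a cell viability assay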
Description: SANGER: Inhibition of human HTC-C3 cell growth in a cell viability assay.

[31] = tested on: VMRC-RCZ; assay: cells; assay type: functional, cell-based, Homo sapiens; details: Homo sapiens, VMRC-RCZ
Description: SANGER: Inhibition of human VMRC-RCZ cell growth in a cell viability assay.

[32] = tested on: L-540; assay: cells; assay type: functional, cell-based, Homo sapiens; details: Homo sapiens, L-540;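 further: growth inhibition of the human L-540 cell line, read out with a viability assay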
Description: SANGER: Inhibition of human L-540 cell growth in a cell viability assay.

[33] = tested on: HT-1080; assay: cells; assay type: functional, cell-based, Homo sapiens; details: Homo sapiens, HT-1080
Description: SANGER: Inhibition of human HT-1080 cell growth in a cell viability assay.

[34] = tested on: SNU-387; assay: cells; assay type: functional, cell-based, Homo sapiens; details: Homo sapiens, SNU-387
Description: SANGER: Inhibition of human SNU-387 cell growth in a cell viability assay.

[35] = tested on: C3A; assay: cells; assay type: functional, cell-based, Homo sapiens; details: Homo sapiens, C3A;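 further: growth inhibition of C3A human cells, quantified with a cell viability readout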
Description: SANGER: Inhibition of human C3A cell growth in a cell viability assay.

[36] = tested on: CaR-1; assay: cells; assay type: functional, cell-based, Homo sapiens; details: Homo sapiens, CaR-1;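 further: growth inhibition of human CaR-1 cancer cells, read out with a cell viability assay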
Description: SANGER: Inhibition of human CaR-1 cell growth in a cell viability assay.

[37] = tested on: RCM-1; assay: cells; assay type: functional, cell-based, Homo sapiens; details: Homo sapiens, RCM-1;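 further: growth inhibition of the RCM-1 line, determined with a cell viability readout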
Description: SANGER: Inhibition of human RCM-1 cell growth in a cell viability assay.

[38] = tested on: LP-1; assay: cells; assay type: functional, cell-based, Homo sapiens; details: Homo sapiens, LP-1;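 further: growth inhibition of human LP-1 cells, with the read-out taken from a cell viability assay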
Description: SANGER: Inhibition of human LP-1 cell growth in a cell viability assay.

[39] = tested on: SNU-16; assay: cells; assay type: functional, cell-based, Homo sapiens; details: Homo sapiens, SNU-16;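 further: growth inhibition of human SNU-16 cells, determined with a cell viability readout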
Description: SANGER: Inhibition of human NCI-SNU-16 cell growth in a cell viability assay.

[40] = tested on: KYSE-180; assay: cells; assay type: functional, cell-based, Homo sapiens; details: Homo sapiens, KYSE-180;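 further: growth inhibition of KYSE-180 cells, read out with a cell viability assay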
Description: SANGER: Inhibition of human KYSE-180 cell growth in a cell viability assay.

[41] = tested on: SW1088; assay: cells; assay type: functional, cell-based, Homo sapiens; details: Homo sapiens, SW1088;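 further: growth inhibition of human SW1088 cells, read out by a cell viability assay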
Description: SANGER: Inhibition of human SW1088 cell growth in a cell viability assay.

[42] = tested on: HO-1-N-1; assay: cells; assay type: functional, cell-based, Homo sapiens; details: Homo sapiens, HO-1-N-1;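 further: growth inhibition of human HO-1-N-1 cells, read out with a cell viability assay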
Description: SANGER: Inhibition of human HO-1-N-1 cell growth in a cell viability assay.

[43] = tested on: DoTc2-4510; assay: cells; assay type: functional, cell-based, Homo sapiens; details: Homo sapiens, DoTc2-4510
[44] = tested on: CAMA-1; assay: cells; assay type: functional, cell-based, Homo sapiens; details: Homo sapiens, CAMA-1;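 further: growth inhibition of CAMA-1 cells, read out with a cell viability assay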
Description: SANGER: Inhibition of human CAMA-1 cell growth in a cell viability assay.

[45] = tested on: G-401; assay: cells; assay type: functional, cell-based, Homo sapiens; details: Homo sapiens, G-401
Description: SANGER: Inhibition of human G-401 cell growth in a cell viability assay.

[46] = tested on: BHT-101; assay: cells; assay type: functional, cell-based, Homo sapiens; details: Homo sapiens, BHT-101
Description: SANGER: Inhibition of human BHT-101 cell growth in a cell viability assay.

[47] = tested on: NCI-H748; assay: cells; assay type: functional, cell-based, Homo sapiens; details: Homo sapiens, NCI-H748;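 further: growth inhibition of NCI-H748 cells, measured by a cell viability assay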
Description: SANGER: Inhibition of human NCI-H748 cell growth in a cell viability assay.

[48] = tested on: NY; assay: cells; assay type: functional, cell-based, Homo sapiens; details: Homo sapiens, NY
Description: SANGER: Inhibition of human NY cell growth in a cell viability assay.

[49] = tested on: CHP-126; assay: cells; assay type: functional, cell-based, Homo sapiens; details: Homo sapiens, CHP-126
Description: SANGER: Inhibition of human CHP-126 cell growth in a cell viability assay.

Measured: pIC50

Cc1cc([N+](=O)[O-])ccc1NS(=O)(=O)c1cc(Cl)ccc1Cl
6.04: [44]
5.33: [20]
5.59: [22]
5.16: [31]
5.27: [15]
5.91: [11]
6.06: [45]
5.58: [5]
4.94: [7]
4.90: [13]
4.98: [38]
5.61: [14]
5.52: [30]
5.06: [37]
5.29: [26]
6.17: [33]
5.63: [1]
5.70: [9]
4.67: [46]
5.57: [8]
5.05: [19]
5.90: [27]
4.92: [3]
5.56: [2]
4.97: [18]
4.54: [4]
5.48: [48]
4.71: [12]
5.45: [16]
5.65: [35]
5.20: [21]
4.95: [23]
5.17: [25]
5.12: [34]
4.91: [41]
5.09: [29]
5.02: [32]
5.50: [40]
5.82: [43]
5.31: [24]
< 4.49: all other assays above

Oc1ccc2ccccc2c1SSc1c(O)ccc2ccccc12
5.69: [26]
4.85: [31]
5.24: [19]
4.99: [23]
5.93: [1]
5.30: [8]
5.09: [20]
5.12: [45]
5.17: [49]
4.66: [14]
4.98: [43]
4.52: [35] | [38]
4.73: [33]
< 4.49: all other assays above

C=C(c1ccc(C(=O)O)cc1)c1cc2c(cc1C)C(C)(C)CCC2(C)C [BEXAROTENE]
5.30: [40]
< 5.10: all other assays above

CCC/C=C/C=C/C(=O)O[C@H]1/C(=C/C(=O)OC)C[C@H]2C[C@H]([C@@H](C)O)OC(=O)C[C@H](O)C[C@@H]3C[C@H](OC(C)=O)C(C)(C)[C@](O)(C[C@@H]4C/C(=C/C(=O)OC)C[C@H](/C=C/C(C)(C)[C@]1(O)O2)O4)O3 [BRYOSTATIN 1]
< 8.10: all assays above
